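Test compounds were applied to cells in 96-well plates for 48 hours at 5 doses. GI50 is the concentration that inhibits growth by half. The concentration for full growth arrest is given as TGI.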 Where a SMILES comes first, the peptide text is derived from it. Bridges are numbered along the chain shown (N, C = ends). [ ]: non-standard residue; d: D form. The star is where a group is joined. ξ: configuration not given here. ξDab(CH2SO3H) = NC(CCNCS(=O)(=O)O)C(=O)O; Heptanoyl(6-Me) = CC(C)CCCCC(=O)*; Dab = NCC[CH](N)C(=O)O

Among the test systems are 786-0 renal; COLO 205 colon; EKVX NSCLC; K-562 leukemia; MDA-MB-231 breast; NCI-H460 lung; OVCAR-5 ovarian; OVCAR-8 ovarian; SNB-75 CNS; SW-620 colon.
Common to all, as to test: growth of human tumour cells (NCI), 48 h

In the case of `CCNC(=O)Nc1ccc(Oc2ccnc3ccc4c(ccn4C)c23)cc1`, the GI50 in the test with 786-0 renal is 35.5 µM; in the test on COLO 205 colon, 29.8 µM; with EKVX NSCLC, above 100 µM; in the test with K-562 leukemia it was 47.4 µM; in the test on MDA-MB-231 breast it was 26.3 µM; with NCI-H460 lung, 25 µM. The GI50 with OVCAR-5 ovarian is above 100 µM; in the test with OVCAR-8 ovarian it was 23 µM; in the test on SNB-75 CNS it was 59.9 µM; in the test on SW-620 colon it was above 100 µM. The TGI was 96.7 µM in the test on 786-0 renal; above 100 µM in the test with COLO 205 colon; above 100 µM in the test on EKVX NSCLC; above 100 µM in the test with K-562 leukemia; 62.8 µM in the test on MDA-MB-231 breast; above 100 µM in the test on NCI-H460 lung. Moreover, the TGI in the test with OVCAR-5 ovarian, in the test with OVCAR-8 ovarian, with SNB-75 CNS and with SW-620 colon was above 100 µM in each case.
Turning to `C=C1C(=O)O[C@H]2C[C@@H]1CC/C(C)=C/CC/C(C)=C/CC[C@@]2(C)O`, the GI50 in the test on 786-0 renal was 43.4 µM; in the test on COLO 205 colon, 44.2 µM; with EKVX NSCLC, above 100 µM; in the test on K-562 leukemia, 20 µM; with MDA-MB-231 breast, 25.7 µM; with NCI-H460 lung, above 100 µM. The GI50 was above 100 µM in the test on OVCAR-5 ovarian, 81.2 µM in the test on OVCAR-8 ovarian, 70.8 µM in the test with SNB-75 CNS and 35 µM with SW-620 colon. Moreover, the TGI with 786-0 renal is above 100 µM; with COLO 205 colon, above 100 µM; in the test on EKVX NSCLC, above 100 µM; in the test on K-562 leukemia, 50.2 µM; with MDA-MB-231 breast, 53.7 µM; in the test with NCI-H460 lung it was above 100 µM. Besides, the TGI with OVCAR-5 ovarian, in the test on OVCAR-8 ovarian, with SNB-75 CNS and with SW-620 colon was above 100 µM throughout.
`Cc1nc(-c2nc(-c3ccc(OC(F)(F)F)cc3)no2)nn1Cc1cccc(N2CCC(S(C)(=O)=O)CC2)c1`: the GI50 was 18.4 µM in the test with 786-0 renal; 11.1 µM in the test with COLO 205 colon; 1.6 µM with EKVX NSCLC; below 0.01 µM in the test with K-562 leukemia; 17.6 µM in the test on MDA-MB-231 breast; 5.95 µM with NCI-H460 lung. Also, the GI50 in the test with OVCAR-5 ovarian was above 65.8 µM; with OVCAR-8 ovarian, 3.86 µM; in the test on SNB-75 CNS, 5.13 µM; in the test with SW-620 colon it was above 46.9 µM. Moreover, the TGI in the test on 786-0 renal is above 100 µM; with COLO 205 colon it was above 100 µM; with EKVX NSCLC it was 48.6 µM; in the test on K-562 leukemia, above 100 µM; in the test with MDA-MB-231 breast, above 100 µM; in the test with NCI-H460 lung, above 100 µM. Further, the TGI was above 100 µM in the test with OVCAR-5 ovarian, above 100 µM in the test with OVCAR-8 ovarian, 48.5 µM with SNB-75 CNS and above 100 µM in the test on SW-620 colon.
Take `CCC(C)C1NC(=O)C(CCNCS(=O)(=O)O)NC(=O)C(NC(=O)C(CCNCS(=O)(=O)O)NC(=O)C(NC(=O)C(CCNCS(=O)(=O)O)NC(=O)CCCCC(C)C)C(C)O)CCNC(=O)C(C(C)O)NC(=O)C(CCNCS(=O)(=O)O)NC(=O)C(CCNCS(=O)(=O)O)NC(=O)C(C(C)CC)NC1=O` (stereo not drawn) ({Heptanoyl(6-Me)}-[ξDab(CH2SO3H)]T[ξDab(CH2SO3H)][Dab][ξDab(CH2SO3H)]II[ξDab(CH2SO3H)][ξDab(CH2SO3H)]T; lactam 4-C; configuration not given here): the GI50 in the test on 786-0 renal was 13 µM; with COLO 205 colon it was 3.26 µM; in the test on EKVX NSCLC it was above 25 µM; with MDA-MB-231 breast it was 5.82 µM; in the test with NCI-H460 lung, 6.86 µM; in the test with OVCAR-5 ovarian it was 24 µM. For the same molecule, the GI50 in the test with OVCAR-8 ovarian is 9.66 µM; in the test with SNB-75 CNS, 1.58 µM; with SW-620 colon, 4 µM. Also, the TGI with 786-0 renal is above 25 µM; with COLO 205 colon, 8.85 µM; in the test with EKVX NSCLC it was above 25 µM; with MDA-MB-231 breast it was above 25 µM; with NCI-H460 lung it was 22.1 µM; in the test on OVCAR-5 ovarian it was above 25 µM. Further, the TGI in the test on OVCAR-8 ovarian, in the test with SNB-75 CNS and in the test on SW-620 colon was above 25 µM throughout.
For `COc1ccc2c(O)c(/C=C3\N=Nc4ccccc43)oc2c1C[C@@H]1CCNC[C@H]1F`, the GI50 in the test on 786-0 renal is 1.7 µM; in the test with COLO 205 colon, 1.88 µM; in the test with EKVX NSCLC it was 12.2 µM; in the test with MDA-MB-231 breast it was 2.42 µM; in the test with NCI-H460 lung it was 2.02 µM; with OVCAR-5 ovarian it was 10.5 µM. Moreover, the GI50 is 2.28 µM in the test on OVCAR-8 ovarian, 8.46 µM with SNB-75 CNS and 2.51 µM in the test on SW-620 colon. The TGI is 3.22 µM in the test on 786-0 renal; 5.05 µM with COLO 205 colon; 25.5 µM with EKVX NSCLC; 7.33 µM with MDA-MB-231 breast; 4.1 µM with NCI-H460 lung; 24 µM in the test with OVCAR-5 ovarian. For the same molecule, the TGI was found to be 5.53 µM with OVCAR-8 ovarian, 21.5 µM with SNB-75 CNS and 11.7 µM with SW-620 colon.
Consider `COc1ccc2cc(C(=O)/C=C/c3ccc(N(C)C)cc3)ccc2c1`, for which the GI50 was above 100 µM with 786-0 renal; above 100 µM with COLO 205 colon; 21 µM with EKVX NSCLC; above 100 µM in the test on K-562 leukemia; 40.2 µM with MDA-MB-231 breast; 62.5 µM in the test with NCI-H460 lung. For the same molecule, the GI50 with OVCAR-8 ovarian is above 100 µM; in the test on SNB-75 CNS, above 100 µM; in the test on SW-620 colon, 87.3 µM. The TGI in the test with 786-0 renal is above 100 µM; in the test on COLO 205 colon, above 100 µM; in the test with EKVX NSCLC it was 72.1 µM; with K-562 leukemia, above 100 µM; in the test with MDA-MB-231 breast, above 100 µM; with NCI-H460 lung, above 100 µM. Further, the TGI in the test with OVCAR-8 ovarian, with SNB-75 CNS and in the test on SW-620 colon was above 100 µM each time.
With `Cc1ccc(NC(=O)c2cc3ccccc3c(N=Nc3cc(S(=O)(=O)O)ccc3O)c2O)c(C)c1`, the TGI was above 100 µM in the test on 786-0 renal; above 100 µM with COLO 205 colon; above 100 µM with EKVX NSCLC; above 100 µM in the test on K-562 leukemia; above 100 µM in the test on MDA-MB-231 breast; 89.2 µM in the test with OVCAR-5 ovarian. For the same molecule, the TGI in the test on OVCAR-8 ovarian, in the test with SNB-75 CNS and with SW-620 colon was above 100 µM in each case.

These data come from PubChem BioAssay (NCI).
